Experiments:
Rattus norvegicus [1] = experiment: Tested for the dose that produced a 50% inhibition of the pressor response to AII in conscious normotensive rats administered intraduodenally; format: functional; conditions: intraduodenal, read-out: ID50 (the source's name)
Oryctolagus cuniculus [2] = organism: Oryctolagus cuniculus; experiment: Tested for inhibition of AII-induced vasoconstriction of rabbit aorta; format: functional
Rattus norvegicus [3] = experiment: Tested for time for the pressor response to AII to recover 50% of its initial effect after intraduodenal dosing of 30 mg/kg; format: functional, organism-based; design: dose 30 mg/kg
[4] = target: T1, Type-1 angiotensin II receptor B (Rattus norvegicus, UniProt P29089); experiment: Tested for inhibition of [125I]- AII specific binding to rat mesenteric arteries, expressed as IC50
T1 sequence (P29089 whole entry): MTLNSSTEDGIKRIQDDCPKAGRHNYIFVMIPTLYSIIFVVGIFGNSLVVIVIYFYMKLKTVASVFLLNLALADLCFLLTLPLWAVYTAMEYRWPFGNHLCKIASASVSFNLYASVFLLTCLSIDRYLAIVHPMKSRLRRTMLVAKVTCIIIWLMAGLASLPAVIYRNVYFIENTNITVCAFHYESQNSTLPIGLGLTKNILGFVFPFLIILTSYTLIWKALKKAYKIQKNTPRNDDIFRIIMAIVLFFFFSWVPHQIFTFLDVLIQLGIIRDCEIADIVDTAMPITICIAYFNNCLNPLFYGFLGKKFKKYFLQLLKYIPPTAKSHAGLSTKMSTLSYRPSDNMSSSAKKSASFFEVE

Rattus norvegicus [5] = experiment: Tested for the dose that produced a 50% inhibition of the pressor response to AII in conscious normotensive rats administered intravenously; format: functional; conditions: iv, read-out: ID50 (the source's name)
Rattus norvegicus [6] = organism: Rattus norvegicus; experiment: Time required for effect of drug after washout of rat adrenal cortical membranes; format: functional
[7] = target: T2, Type-1 angiotensin II receptor (Homo sapiens, UniProt P30556); experiment: Tested for Angiotensin II receptor, type 1 affinity in the presence of 0.25% bovine serum albumin (BSA)
T2 sequence (P30556 whole entry): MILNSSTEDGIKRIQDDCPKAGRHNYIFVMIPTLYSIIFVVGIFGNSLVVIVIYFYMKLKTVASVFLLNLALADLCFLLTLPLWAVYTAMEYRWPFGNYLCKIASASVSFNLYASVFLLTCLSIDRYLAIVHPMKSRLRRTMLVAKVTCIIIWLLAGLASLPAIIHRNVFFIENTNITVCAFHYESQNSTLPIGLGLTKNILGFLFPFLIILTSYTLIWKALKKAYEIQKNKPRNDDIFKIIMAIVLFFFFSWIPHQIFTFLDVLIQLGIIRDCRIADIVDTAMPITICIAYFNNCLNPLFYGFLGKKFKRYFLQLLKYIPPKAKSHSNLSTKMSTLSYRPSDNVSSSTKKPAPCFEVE

Rattus norvegicus [8] = experiment: Tested for time for the pressor response to AII to recover 50% of its initial effect after intraduodenal dosing of 10 mg/kg; format: functional, organism-based; design: dose 10 mg/kg
[9] = target: T2, Type-1 angiotensin II receptor; experiment: Tested for Angiotensin II receptor, type 1 affinity in the absence of bovine serum albumin (BSA)
Canis familiaris [10] = experiment: Tested for po dose required to inhibit the pressor effect up to 14 hr in Angiotensin I infused dog; format: functional, Canis lupus familiaris
Canis familiaris [11] = experiment: Tested for lowering of mean arterial blood pressure at a dose of 10 mg/kg id, in 2-kidney, 1-clip Goldblatt renin dependent hypertensive dog for more than 12 hours; format: functional, Canis lupus familiaris
[12] = target: T2, Type-1 angiotensin II receptor; experiment: Tested for binding affinity to Angiotensin II receptor, type 1
[13] = target: T2, Type-1 angiotensin II receptor; experiment: Tested for Angiotensin II receptor, type 1 affinity in the absence of BSA
Oryctolagus cuniculus [14] = organism: Oryctolagus cuniculus; experiment: Tested for inhibition of AII-induced vasoconstriction of rabbit aorta measured at 30% inhibition; format: functional
Canis familiaris [15] = experiment: Tested for po dose required to inhibit the pressor effect up to 20 hr in Angiotensin I infused dog; format: functional, Canis lupus familiaris
[16] = target: T2, Type-1 angiotensin II receptor; experiment: Tested for Angiotensin II receptor, type 1 affinity in the presence of 0.25% BSA

IC50 [4] | Structure (SMILES) | ED50 (Rattus norvegicus [1]) | Kb (Oryctolagus cuniculus [2]) | ED50 (Rattus norvegicus [5]) | T1/2 (Rattus norvegicus [8]) | also measured
11.8 nM | CCCCc1ncc(/C=C(\Cc2cccs2)C(=O)O)n1Cc1ccc(C(=O)O)c2ccccc12 | 3.8 mg/kg |  | 0.05 mg/kg | 2.42 h | TIME (Rattus norvegicus [6]): 3 h; IC50 [13]: 1.2 nM; Kb (Oryctolagus cuniculus [14]): 0.059 nM; Dose (Canis familiaris [15]): 10 mg/kg; IC50 [16]: 31 nM; Mean blood pressure (Canis familiaris [11]): 35 mmHg
0.16 nM | CCCCc1ncc(/C=C(\Cc2cccs2)C(=O)O)n1Cc1ccc(C(=O)O)c(Cl)c1Cl | 5.4 mg/kg | 0.18 nM | 0.04 mg/kg | 1.6 h | 

Second part, the compound before the results:

Structure (SMILES) | IC50 [4] | ED50 (Rattus norvegicus [1]) | Kb (Oryctolagus cuniculus [2]) | ED50 (Rattus norvegicus [5]) | T1/2 (Rattus norvegicus [8]) | also measured
CCCCc1ncc(/C=C(\Cc2cccs2)C(=O)O)n1Cc1ccc(C(=O)O)c(Cl)c1 | 1.04 nM | 16 mg/kg | 0.13 nM | 0.12 mg/kg |  | T1/2 (Rattus norvegicus [3]): 1.8 h
CCCCc1ncc(/C=C(\Cc2cccs2)C(=O)O)n1Cc1ccc(C(=O)O)cc1 [EPROSARTAN] |  | 5.5 mg/kg | 0.21 nM | 0.08 mg/kg | 1.42 h | TIME (Rattus norvegicus [6]): 0.5 h; IC50 [7]: 7.3 nM; IC50 [9]: 2 nM; Dose (Canis familiaris [10]): 10 mg/kg; Mean blood pressure (Canis familiaris [11]): 35 mmHg
CCCCc1ncc(/C=C(\Cc2cccs2)C(=O)O)n1Cc1ccccc1 |  |  |  |  |  | IC50 [12]: 440 nM
CCCCc1ncc(/C=C(\Cc2cccs2)C(=O)O)n1Cc1ccc(C(=O)O)cc1Cl | 1.45 nM | 2.4 mg/kg | 0.02 nM | 0.06 mg/kg | 2.5 h | 
CCCCc1ncc(/C=C(\Cc2cccs2)C(=O)O)n1Cc1ccccc1Cl |  |  |  |  |  | IC50 [12]: 4530 nM
CCCCc1ncc(/C=C(\Cc2cccs2)C(=O)O)n1Cc1cc(Cl)c(C(=O)O)cc1Cl | 35.4 nM |  | 1.58 nM | 0.68 mg/kg |  | 

Reference: ChEMBL document CHEMBL1152092, “A potent long-acting imidazole-5-acrylic acid angiotensin II AT-1 receptor antagonist” (Bioorg Med Chem Lett, 1994)
